Results published in ChEMBL document CHEMBL1125905, “Synthesis, conformational properties, and antibody recognition of peptides containing beta-turn mimetics based on alpha-alkylproline derivatives” (J Med Chem, 1991).

Columns and labels:
[1] = Dissociation constant (Kd) for the equilibrium binding to the monoclonal antibodies DB19/25 which were raised in mice was determined; set-up: species or system Mus musculus
[2] = Dissociation constant (Kd) for the equilibrium binding to the monoclonal antibodies DB19/1 which were raised in mice was determined; set-up: species or system Mus musculus

Q: Which results are given for CC(=O)N[C@@H](Cc1ccc(O)cc1)C(=O)N1CCC[C@H]1C(=O)N[C@@H](Cc1ccc(O)cc1)C(=O)N[C@@H](CC(=O)O)C(=O)N[C@@H](C(=O)N(C)[C@@H](C)C(=O)N[C@H](CC(=O)O)C(=O)N[C@H](Cc1ccc(O)cc1)C(=O)N[C@H](C)C(=O)O)C(C)C?
A: Kd [1]: 38 nM; Kd [2]: 88 nM

Q: Which Kd [1] does the source give for CC(=O)N[C@@H](Cc1ccc(O)cc1)C(=O)N(C)[C@@H](C)C(=O)N[C@@H](Cc1ccc(O)cc1)C(=O)N[C@@H](CC(=O)O)C(=O)N[C@@H](C(=O)N1CCC[C@@H]1C(=O)N[C@H](CC(=O)O)C(=O)N[C@H](Cc1ccc(O)cc1)C(=O)N[C@H](C)C(=O)O)C(C)C here?
A: Its Kd is 600 nM.

Q: And the Kd [2]?
A: The Kd was 4200 nM.

Q: Which Kd [1] does the source give for CC(=O)N[C@@H](Cc1ccc(O)cc1)C(=O)N1CCC[C@@]1(C)C(=O)N[C@@H](Cc1ccc(O)cc1)C(=O)N[C@@H](CC(=O)O)C(=O)N[C@@H](C(=O)N1CCC[C@@H]1C(=O)N[C@H](CC(=O)O)C(=O)N[C@H](Cc1ccc(O)cc1)C(=O)N[C@H](C)C(=O)O)C(C)C here?
A: The Kd was 5.7 nM.

Q: What about the Kd [2] of the same molecule?
A: Its Kd is 3.6 nM.

Q: Which Kd [1] does the source give for CC(=O)N[C@@H](Cc1ccc(O)cc1)C(=O)N1CCC[C@H]1C(=O)N[C@@H](Cc1ccc(O)cc1)C(=O)N[C@@H](CC(=O)O)C(=O)N[C@@H](C(=O)N1CCC[C@@H]1C(=O)N[C@H](CC(=O)O)C(=O)N[C@H](Cc1ccc(O)cc1)C(=O)N[C@H](C)C(=O)O)C(C)C here?
A: The Kd was 18 nM.

Q: And the Kd [2]?
A: Its Kd is 180 nM.
